Laboratory results from US20240389885A1, “DAILY FASTING METHANE TO DETECT INTESTINAL METHANOGEN OVERGROWTH AND MONITOR TREATMENT RESPONSE” (Cedars-Sinai Medical Center, priority 2021, published 2024).

Experiments:
[1] = test system: canine small bowel transit; conditions: infusion of CH4, canine; cited from earlier work
[2] = test system: subjects with IBS-C and IMO; assay: EASE-DO randomized double-blind placebo-controlled trial (NCT03763175); type: in vivo, human; conditions: 14-week trial, adult patients with IBS-C and IMO, single daily oral doses vs placebo
Description: To evaluate the accuracy and temporal stability of SMM, and to assess its correlation with stool M. smithii loads, we analyzed data from a randomized double-blind placebo-controlled trial: Efficacy and Safety of Single, Daily Oral Doses of SYN-010 Compared to Placebo in Adult Patients with IBS-C (EASE-DO, NCT03763175).
Trial details: Efficacy and Safety of Single, Daily Oral Doses of SYN-010 Compared to Placebo in Adult Patients with IBS-C (EASE-DO, NCT03763175) was a 14-week single-center randomized double-blind placebo-controlled trial evaluating the effects of lovastatin lactone on subjects with IBS-C and IMO. Subjects were excluded if they were on statins, fibrates, niacin, narcotics, laxatives, tegaserod, lubiprostone, linaclotide, metoclopramide, prucalopride, domperidone, plecanatide, CandiBactin, Atrantil, Allimax/Allimed, antibiotics within 2 months and opioids within 3 months prior to the study. If subjects were on probiotics or fiber supplements, they were asked to not change their dose. […] All subjects enrolled in this study completed a 2-hour breath test at their initial visit and their weekly complete spontaneous bowel movement (CSBM) and spontaneous bowel movement (SBM) were recorded. After recording their baseline CSBM and SBM for 2 weeks, subjects returned to the lab and their SMM and stool samples were collected (FIG. 1). […]

Compound: C [CH4, methane]
- effect on small bowel transit [1]: slows canine small bowel transit

Compound: CC[C@H](C)C(=O)O[C@H]1C[C@@H](C)C=C2C=C[C@H](C)[C@H](CC[C@@H]3C[C@@H](O)CC(=O)O3)[C@H]21 [SYN-010, lovastatin lactone]
- primary endpoint, interim futility analysis [2]: not meeting the primary endpoint
